Test results taken from patent publication US4563446A, “Thromboxane synthetase inhibiting 3-(1-alkenyl) pyridines” (Takeda Chemical Industries, Ltd., priority 1983, dated 1986).

Tested on: TXA2 synthetase
Assay: Inhibitory effect on blood thromboxane A2 (TXA2) production in rats
Assay type: in vivo, Male Sprague-Dawley rats
Conditions: 10 mg/kg oral, 2 hours after administration; serum TXB2 by radioimmunoassay, versus control
Method: Male Sprague-Dawley rats aged 7 to 8 weeks were used in groups of 5 individuals. Rats in the dosing group received by oral administration of 2 ml/kg of an aqueous suspension of 10 mg/kg of the test compound prepared with a small amount of gum arabic. To rats in the control group, a suspension of gum arabic only was similarly administered. Two hours after administration, each rat was anesthetized with pentobarbital sodium (50 mg/kg, intraperitoneal) and 1 ml of blood was taken from the abdominal aorta. The blood was allowed to stand at 25° C. for 90 minutes, after which it was centrifuged at 15,000 rpm for 2 minutes to separate the serum. The serum thromboxane B2 (TXB2) which was a stable metabolite of TXA2 produced in the blood during the standing procedure was determined by radioimmunoassay (Shibouta et al., Biochemical Pharmacol. 28, 3601, 1979). The percent inhibition of TXA2 synthetase was calculated from the difference in TXB2 production between the control and dosing groups.

Compared with `CCCCC/C=C(\c1ccccc1)c1cccnc1` [Id-5, (E)-1-phenyl-1-(3-pyridyl)-1-heptene], `OCCCCC/C=C(\c1ccccc1)c1cccnc1` [Id-14, (E)-7-phenyl-7-(3-pyridyl)-6-hepten-1-ol] is higher in “% inhibition of TXA2 synthetase” value: 73% for the first, 92% for the second.

Going from `O=C(O)CCCCCCCCC/C=C(\c1ccccc1)c1cccnc1` [Id-9, (E)-12-phenyl-12-(3-pyridyl)-11-dodecenoic acid] to `O=C(O)CCCCCCCCC/C=C(\c1ccccc1)c1ccc[n+]([O-])c1` [Ie-4], the “% inhibition of TXA2 synthetase” value falls from 90% to 85%.

Going from `OCCCCC/C=C(/c1ccccc1)c1cccnc1` [Id-15] to `COCCCCC/C=C(\c1ccccc1)c1cccnc1` [Id-37, (E)-1-methoxy-7-phenyl-7-(3-pyridyl)-6-heptene], the “% inhibition of TXA2 synthetase” value rises from 87% to 92%.

Going from `OCCCCC/C=C(\c1cccnc1)c1cccs1` [Id-17, (E)-7-(3-pyridyl)-7-(2-thienyl)-6-hepten-1-ol] to `O=C(O)CCCC/C=C(/c1ccc[n+]([O-])c1)c1cccs1` [Ie-5], the “% inhibition of TXA2 synthetase” value falls from 95% to 90%.

First: OCCCCC/C=C(\c1cccnc1)c1cccs1 [Id-18]
Second: NC(=O)CCCC/C=C(\c1ccccc1)c1cccnc1 [Id-43, (E)-7-phenyl-7-(3-pyridyl)-6-heptenamide]
The “% inhibition of TXA2 synthetase” value of the first is lower: 72% for the first, 93% for the second.

Compared with `CC(=O)OCCCCC/C=C(\c1ccccc1)c1cccnc1` [Id-19, 1-acetoxy-(E)-7-phenyl-7-(3-pyridyl)-6-heptene], `CNC(=O)OCCCCC/C=C(\c1ccccc1)c1cccnc1` [Id-24, 1-methylaminocarbonyloxy-(E)-7-phenyl-7-(3-pyridyl)-6-heptene] is lower in “% inhibition of TXA2 synthetase” value: 94% for the first, 90% for the second.

First: O=COCCCCC/C=C(\c1ccccc1)c1cccnc1 [Id-20, 1-formyloxy-(E)-7-phenyl-7-(3-pyridyl)-6-heptene]
Second: O=[N+]([O-])OCCCCC/C=C(\c1ccccc1)c1cccnc1 [Id-32, 1-nitroxy-(E)-7-phenyl-7-(3-pyridyl)-6-heptene]
The “% inhibition of TXA2 synthetase” value of the first is lower: 87% for the first, 94% for the second.

Compared with `CCCCNC(=O)OCCCCC/C=C(\c1ccccc1)c1cccnc1` [Id-25, 1-(n-butyl)aminocarbonyloxy-(E)-7-phenyl-7-(3-pyridyl)-6-heptene], `O=C(Nc1ccccc1)OCCCCC/C=C(\c1ccccc1)c1cccnc1` [Id-27, 1-phenylaminocarbonyloxy-(E)-7-phenyl-7-(3-pyridyl)-6-heptene] is higher in “% inhibition of TXA2 synthetase” value: 83% for the first, 87% for the second.

Compared with `S=C(Nc1ccccc1)OCCCCC/C=C(\c1ccccc1)c1cccnc1` [Id-28, 1-phenylaminothiocarbonyloxy-(E)-7-phenyl-7-(3-pyridyl)-6-heptene], `O=C(CCCC/C=C(\c1ccccc1)c1cccnc1)Nc1ccccc1` [Id-44, N-phenylamide of (E)-7-phenyl-7-(3-pyridyl)-6-heptenoic acid] is higher in “% inhibition of TXA2 synthetase” value: 79% for the first, 94% for the second.

Going from `Cc1ccc(S(=O)(=O)NC(=O)OCCCCC/C=C(\c2ccccc2)c2cccnc2)cc1` [Id-29, 1-(p-toluenesulfonyl)aminocarbonyloxy-(E)-7-phenyl-7-(3-pyridyl)-6-heptene] to `O=C(Nc1ccccc1)OCCCCC/C=C(\c1ccccc1)c1ccc[n+]([O-])c1` [Ie-8], the “% inhibition of TXA2 synthetase” value falls from 94% to 80%.

Compared with `CC(C)(C)[Si](C)(C)OCCCCC/C=C(\c1ccccc1)c1cccnc1` [Id-48, dimethyl-t-butylsilyl ether of (E)-7-phenyl-7-(3-pyridyl)-6-hepten-1-ol], `[O-][n+]1cccc(/C(=C/CCCCCO)c2ccccc2)c1` [Ie-7, (E)-7-phenyl-7-(1-oxide-3-pyridyl)-6-hepten-1-ol] is lower in “% inhibition of TXA2 synthetase” value: 91% for the first, 80% for the second.

Going from `O=C(O)CCCC/C=C(\c1ccccc1)c1ccc[n+]([O-])c1` [Ie-2, (E)-7-phenyl-7-(1-oxide-3-pyridyl)-6-heptenoic acid] to `O=C(O)CCCC/C=C(/c1ccccc1)c1ccc[n+]([O-])c1` [Ie-3], the “% inhibition of TXA2 synthetase” value falls from 85% to 70%.

First: COC(=O)CCCC/C=C(\c1ccccc1)c1ccc[n+]([O-])c1 [Ie-6]
Second: CCCCC/C=C(\c1ccccc1)c1ccc[n+]([O-])c1 [Ie-9]
The “% inhibition of TXA2 synthetase” value of the first is higher: 80% for the first, 68% for the second.

Tested on: not listed separately
Assay: Oral toxicity
Assay type: in vivo
Conditions: 1000 mg/kg/day, five rats, 14 days
Description: Moreover, the compounds of the invention are very low in toxicity in rats, dogs and so forth and characterized by broad margin between the toxic dose and the therapeutically effective dose. […] Furthermore, the compounds (I) of the invention produced long-lasting pharmacological effects in vivo, so that their TXA2 synthetase inhibiting activity is expected to be retained stably for a prolonged period of time. Accordingly, the compounds provided by the invention are used in low doses in mammals, including humans, for the prevention or treatment of thrombosis due to TXA2 -induced platelet aggregation, ischemic diseases due to vasospasm in heart, brain, periphery and circulatory system (e.g. myocardial infarction, stroke, renal infarction, pulmonary infarction, infarction at some other site, digestive tract ulcer) and diseases due to imbalance of the ratio of TXA2 /PGI2, with low incidence of adverse effects resulting from long-term continuous use thereof. They are administered orally in the form of tablets, capsules, powders or granules, for instance, or parenterally in the form of injections or pellets. Generally, they are used in a daily oral dose of 20-200 mg per adult human or a daily parenteral dose of 10-100 mg per adult human, respectively in 1-3 divided doses.

For `OCCCCC/C=C(\c1ccccc1)c1cccnc1` [Id-14, (E)-7-phenyl-7-(3-pyridyl)-6-hepten-1-ol], the Deaths was “no rat was dead for 14 days”.
